# Assay results reported in patent publication US11207291B2, “Antimicrobial compositions comprising cannabinoids and methods of using the same” (Graphium Biosciences, Inc., priority 2017, dated 2021).
# Where two headings read alike, the source gives them in different places.
# Tests used:
# [1] = system: Aspergillus fumigatus; settings: ATCC MYA-3626; 48 hr; Example 1 table; cited from earlier work
# [2] = system: Aspergillus fumigatus; settings: MYA-3626; 48 hr; Example 4 table; cited from earlier work
# [3] = system: Aspergillus fumigatus; test: Broth microdilution MIC, yeast and fungi (Example 1); type: cell-based; settings: isolate MMX 5280 (ATCC MYA-3626)
# [4] = system: Candida parapsilosis; settings: ATCC 22019, Example 4 table, cited from earlier work
# [5] = system: Candida parapsilosis; settings: ATCC 22019, Example 1 table, cited from earlier work
# [6] = system: Candida parapsilosis; test: Broth microdilution MIC, yeast and fungi (Example 1); type: cell-based; settings: Example 1, isolate MMX 2323 (ATCC 22019)
# [7] = system: Aspergillus fumigatus; test: Broth microdilution MIC, fungi (Example 4); type: cell-based; settings: Example 4, isolate MMX 5280 (MYA-3626)
# [8] = system: Candida parapsilosis; test: Broth microdilution MIC, fungi (Example 4); type: cell-based; settings: Example 4, isolate MMX 2323 (ATCC 22019)
smiles,measurement,setting,value
C[C@@H]1[C@H](O)[C@@H](C)/C=C/C=C/C=C/C=C/C=C/C=C/C=C/[C@H](O[C@@H]2O[C@H](C)[C@@H](O)[C@H](N)[C@@H]2O)C[C@@H]2O[C@](O)(C[C@@H](O)C[C@@H](O)[C@H](O)CC[C@@H](O)C[C@@H](O)CC(=O)O[C@H]1C)C[C@H](O)[C@H]2C(=O)O [Amphotericin B],CLSI QC range (MIC),[1],0.5 to 4 µg/mL
same,CLSI QC range (MIC),[2],(0.5-4)^3 μg/mL
same,MIC at 24 hr,[3]; 24 hr,"0.5, μg/mL"
same,MIC at 48 hr,[3]; 48 hr,2 µg/mL
same,CLSI QC range (MIC),[4]; 24 hr,"(0.5-2)^3, μg/mL"
same,CLSI QC range (MIC),[4]; 48 hr,(0.25-4)^3 μg/mL
same,CLSI QC range (MIC),[5]; 24 hr,0.5 to 2 µg/mL
same,CLSI QC range (MIC),[5]; 48 hr,0.25 to 4 µg/mL
same,MIC at 24 hr,[6]; 24 hr,0.5 µg/mL
same,MIC at 48 hr,[6]; 48 hr,1 µg/mL
same,MIC at 24 hr,[7]; 24 hr,0.25 µg/mL
same,MIC at 48 hr,[7]; 48 hr,1 µg/mL
same,MIC at 24 hr,[8]; 24 hr,0.12 µg/mL
same,MIC at 48 hr,[8]; 48 hr,0.5 µg/mL
